Results: US20240092779A1, “USP1 INHIBITORS AND USES THEREOF” (Zentaur Therapeutics USA Inc., priority 2022, published 2024)

Columns and labels:
[1] = Liver microsomal stability (HLM); type: in vitro ADME; conditions: human, liver microsomes, human liver microsomes 0.5 mg/mL, 1 μM compound, NADPH
[2] = Solubility in FaSSIF (Fasted State Simulated Intestinal Fluid); type: physicochemical; conditions: kinetic from dmso stock, FaSSIF pH 6.5, 25° C.
Experimental: Solubility in FaSSIF (Fasted State Simulated Intestinal Fluid)
Certain Compounds of the Disclosure were assessed for the apparent solubility in FaSSIF.
0.420 g of NaOH, 3.438 g of NaH2PO4 and 6.186 g of NaCl were dissolved into about 900 mL ultrapure water. The solution was adjusted to the pH of 6.5 with 1N NaOH or 1N HCl. The solution was then diluted with ultrapure water to 1000 mL at room temperature. The resulting solution is used as buffer solution.
2.240 g of FaSSIF Powder was added to about 500 mL of above-mentioned buffer solution. The solution was stirred until powder was completely dissolved. Then the solution was diluted with buffer A to 1000 mL at room temperature. This solution is FaSSIF to be used in the following experiment.
15 μL of stock solution (10 mM) of each sample was placed into their proper 96-well rack. 485 μL of FaSSIF was added into each vial of the cap-less solubility sample plate. One stir stick was added to each vial and the vial was sealed using a molded PTFE/Silicone plug. The solubility sample plate was transferred to the Eppendorf Thermomixer Comfort plate shaker and shaked at 25° C. at 1100 RPM for 2 hours. After completion of the 2 hours, the stir sticks using a big magnet were removed. The samples from the solubility sample plate were transferred into the filter plate. Using the vacuum manifold, all the samples are filtered. Aliquot of 5 μL was taken from filtrate followed by addition of 5 μL DMSO and 490 μL of a mixture of H2O and acetonitrile containing internal standard (1:1).
3 μM Standards solution (STD) was prepared from the 10 mM DMSO STD plate.as following: transferring 6 μL into the remaining empty plate, adding 194 μL of DMSO to that plate to have a STD concentration of 300 μM. From the 300 μM DMSO STD plate, 5 μL solution was transferred into the remaining empty plate. Addition of 5 μL PBS and 490 μL of a mixture of H2O and acetonitrile containing internal standard (1:1) to that plate furnished a final STD concentration of 3 μM STD solution.
The samples are analyzed and quantified against the standard of known concentration using LC/MS/MS, calculating the solubility of the test compound as following (DF means the dilution factor):
[Sample solubility in FsSSIF (04)]=Area Ratio sample×DF sample×[STD]/Area Ratio STD

[3] = tested on: MDA-MB-436 subcutaneous human breast cancer model; experiment: In vivo efficacy in MDA-MB-436 subcutaneous xenograft; conditions: NOD SCID mice, 28 days
Experimental: Anti-tumor efficacy of USP1 inhibitors were evaluated in mice using the MDA-MB-436 subcutaneous human breast cancer model that harbors the loss-of-function BRCA1 mutation. 6-8 weeks old female NOD SCID mice from Beijing Anikeeper Biotech Co., Ltd. were inoculated subcutaneously with 1×10^7 MDA-MB-436 tumor cells. When tumors reached a size of approximately 130 mm 3 mice were randomized into group of 5 or 9 and dosed via oral gavage once or twice daily for 28 days with either vehicle (twice daily, 9 animals), one dose of USP1 inhibitor 1-107 at 150 mg/kg (twice daily, 5 animals), three doses of USP1 inhibitor I-111 at […] (once daily, 9 animals per group), or one dose of USP1 inhibitor 1-124 at 150 mg/kg (twice daily, 5 animals). Body weight and tumor volume were measured twice per week. Tumor volume (TV) was calculated as mean and standard deviation of the mean for each treatment group. The percentage tumor growth inhibition (TGI) was calculated using the formula: TGI=(RTVvehicle−RTVtreatment)*100)/(RTVvehicle −1), where RTV is the mean relative volumes (RTV=TVDay terminal[…]) of the tumors in the treatment and the vehicle groups, respectively, on a given day from Day 0-Day 28 where Day 0 is the first day of treatment.
All treatment groups were well-tolerated, with various dose levels and dosing frequency for the duration of the treatment period from day 0 to day 28 in the tumor bearing mice, as shown in FIG. 2.

- microsomal CLint at 1 μM [1]: < 10 µL/min/mg
- solubility at 2 h [2]: ≥ 100 µM
Compound: COc1ncnc(C2CC2)c1-c1ncc2cc(C3CCN(C)CC3)c(=O)n(Cc3ccc(-c4nc(C(F)(F)F)cn4C4CC4)cc3)c2n1 [Compound I-111]
- TGI (tumor growth inhibition) ([3]; 10 mg/kg QD oral gavage): ~55%
- TGI (tumor growth inhibition) ([3]; 30 mg/kg QD oral gavage): ~80%
- TGI (tumor growth inhibition) ([3]; 60 mg/kg QD oral gavage): > 100%
